{
  "source": "paper PMC12463534",
  "about": "“Exploring the Anticancer Properties of 4-Phenylthiazole-Based Ru(II) and Os(II) Metallacycles Featuring 1-Methylimidazole as N-Donor Functionality” (Bioinorganic Chemistry and Applications, 2025)",
  "key": {"[1]": {"experiment": "Ruthenium levels in tissues by ICP-MS", "format": "in vivo", "conditions": "CT26-bearing mice, 2 h after last injection", "protocol": "Tumor-specific organs and blood serum, harvested from the other animals 2 h after the last injection (Figure 5(c)), were measured for the average ruthenium content by inductively coupled plasma mass spectrometry (ICP-MS) of tissue homogenates.\nCT26 cells (5 × 10^5 cells in 50-μL serum-free medium) were injected subcutaneously (s.c.) into the right flank of 8–16-week-old BALB/c mice (Envigo Laboratories, San Pietro Al Natisone, Italy). After 3 days, therapy treatment started on five consecutive days for 2 weeks. Animals were treated i.p. with 50 mg/kg 1c and 3c (all dissolved in 10% DMSO in 0.9% NaCl, 12 mice per group). The solvent control animals received 10% DMSO in 0.9% NaCl. Every day, the animals were monitored for the overall health conditions and tumor size was measured regularly by caliper measurement. Tumor volumes (mm^3) were calculated using following formula: length × width^2/2. […] Tumor growth and possible side effects of the treatment were evaluated by daily recording the tumor size by caliper measurement and parameters of the animal's overall health conditions. In the tissue sampling arm at the experiment, the mice were sacrificed by cervical dislocation 2 h after the last treatment. Tumors as well as organs were collected. Additionally, blood was drawn and incubated for 25 min to allow blood clotting. To isolate serum and blood pellets, the blood was centrifuged for 10 min at 17,900 g at room temperature. The supernatant characterized as serum was transferred to a new tube and centrifuged again to remove residual red blood cells. All collected samples were stored at −20°C and further processed for platinum measurements via ICP-MS.\nThe ruthenium concentration was determined by ICP-MS analysis. Ruthenium and rhenium standards were derived from LabKings (LabKings B.V., The Netherlands). The total ruthenium content was determined with a quadrupole-based ICP-MS instrument Agilent 7800 (Agilent Technologies, Tokyo, Japan) equipped with the Agilent SPS 4 autosampler (Agilent Technologies, Tokyo, Japan) and a MicroMist nebulizer at a sample uptake rate of approximately 0.2 mL·min^−1. […] Argon was used as plasma gas (15 L·min^−1) and as carrier gas (∼1.08 L·min^−1). The integration time was set to 0.1 s, and measurements were performed in 6 replicates with 100 sweeps. Rhenium served as internal standard for ruthenium."}, "[2]": {"test_system": "G4 forming sequences (h-Telo, bcl2, hTERT, Kit1, Kit2) and dsDNA", "set-up": "method as in PMID 38426897", "conditions": "recent work; ref [5]; cited from earlier work"}, "[3]": {"test_system": "CH1/PA-1 ovarian teratocarcinoma cells", "set-up": "method as in PMID 38426897", "conditions": "MTT assay, exposure time 96 h; ref [5]; read-out: 50% inhibitory concentration CH1 (chlorido complexes, reference) (converted); cited from earlier work"}, "Balb/c mice": {"test_system": "Balb/c mice", "experiment": "Toxicity experiments in Balb/c mice (MTD)", "conditions": "mice, i.p.", "protocol": "Finally, we were interested in the anticancer activity of selected complexes of our panel in an in vivo mouse setting. Before injecting the compounds in tumor-bearing mice, toxicity experiments were performed. […] On the last day of therapy, most animals were sacrificed and tissues as well as tumors collected. Only four mice (per group) were kept to get information on the impact of the drugs on the overall survival."}, "[4]": {"test_system": "HCT116 multicellular tumor spheroids (3D)", "experiment": "Resazurin assay, HCT116 3D multicellular tumor spheroids", "experimental": "Both models were investigated by the fluorimetric resazurin assay after 96-h exposure.\nHCT116 colorectal carcinoma cells (RRID:CVCL_0291 from ATCC) were cultivated in McCoy's 5A medium, supplemented with 10% heat-inactivated fetal bovine serum and 4 mM L-glutamine.\nFor 2D experiments, HCT116 cells were harvested from culture flasks by trypsinization, seeded in 100-μL aliquots into 96-well microculture plates (CytoOne, TC-treated, from Starlab) in densities of 2 × 10^3 cells per well, and incubated for 24 h prior to exposure to the test compounds. […] Stock solutions of test compounds were prepared in DMF, which were then diluted in McCoy's 5A-supplemented medium (not to exceed a final content of 0.5% v/v of organic solvent in the test plates), and serial dilutions were added in aliquots of 100 μL per well. […] After incubation for 4 h, fluorescence was measured with a microplate reader (Bio-Tek, SynergyHT) at a wavelength of 530 nm, additionally using a reference wavelength of 620 nm."}, "[5]": {"test_system": "SW480 colon adenocarcinoma cells", "set-up": "method as in PMID 38426897", "conditions": "MTT assay, exposure time 96 h; ref [5]; read-out: 50% inhibitory concentration SW480 (chlorido complexes, reference) (converted); cited from earlier work"}, "SW480 cells": {"test_system": "SW480 cells", "experiment": "DCFH-DA assay, cellular ROS levels", "format": "cell-based, human", "conditions": "2 h, concentration dependent", "protocol": "For this approach, SW480 cells were subjected to the 2′,7′-dichlorofluorescin-diacetate (DCFH-DA) assay.\nSW480 colon adenocarcinoma cells were trypsinized for 5 min in a humidified incubator at 37°C and under a 5% CO2 atmosphere. Supplemented MEM was added to stop trypsinization, and cells were centrifuged for 3 min at 1200 rpm (Heraeus Megafuge 1.0R). After cell counting, SW480 cells were seeded in 100-μL aliquots in densities of 2.5 × 10^4 cells/well into 96-well clear flat-bottom microplates (CytoOne, TC-treated, from Starlab). After incubation for 24 h, cells were washed with 200 μL of Hanks' balanced salt solution (HBSS; Sigma-Aldrich; supplemented with 1% heat-inactivated FCS). […] After washing cells with 200 μL of supplemented HBSS, serially diluted test compounds in phenol-red-free Opti-MEM (Gibco), supplemented with 1% heat-inactivated FCS, were added in 200-μl triplicates and tert-butyl hydroperoxide (TBHP) was applied as positive control. […] Blank-corrected values were calculated relative to negative controls (treated with drug-free supplemented Opti-MEM) from three independent experiments."}, "[6]": {"test_system": "A549 lung adenocarcinoma cells", "set-up": "method as in PMID 38426897", "conditions": "MTT assay, exposure time 96 h; ref [5]; read-out: 50% inhibitory concentration A549 (chlorido complexes, reference) (converted); cited from earlier work"}, "[7]": {"test_system": "HCT116 colorectal cancer cell line (2D)", "experiment": "Resazurin assay, HCT116 2D (monolayer) culture"}, "CT26 tumor": {"test_system": "CT26 tumor", "experiment": "Anticancer activity in CT26 tumor-bearing BALB/c mice", "format": "in vivo", "conditions": "i.p. 50 mg/kg, 5 times a week for two weeks, did not reach statistical significance", "protocol": "Figure 5 Anticancer activity of 1c and 3c in vivo. CT26-bearing BALB/c mice were treated i.p. with 50 mg/kg for five consecutive days for 2 weeks. (a) Impact on tumor growth; data are presented as mean ± SEM. […] On Day 15, most of the animals were sacrificed and tissues collected for further analyses. Of each group, 4 animals were kept to assess the impact on overall survival, which is shown in (b). Statistical significance was tested by log-rank test and Mantel–Cox post-test, ^∗p < 0.01. (c) The ruthenium levels measured by ICP-MS in the collected tissue samples of the mice, which were sacrificed 2 h after the last treatment.\nCT26 cells (5 × 10^5 cells in 50-μL serum-free medium) were injected subcutaneously (s.c.) into the right flank of 8–16-week-old BALB/c mice (Envigo Laboratories, San Pietro Al Natisone, Italy). After 3 days, therapy treatment started on five consecutive days for 2 weeks. Animals were treated i.p. with 50 mg/kg 1c and 3c (all dissolved in 10% DMSO in 0.9% NaCl, 12 mice per group). The solvent control animals received 10% DMSO in 0.9% NaCl. Every day, the animals were monitored for the overall health conditions and tumor size was measured regularly by caliper measurement. Tumor volumes (mm^3) were calculated using following formula: length × width^2/2. In the overall survival arm of the experiment, mice were sacrificed by cervical dislocation in the case of a tumor length > 20 mm or tumor ulceration or a decreased body weight of ∼20%. Tumor growth and possible side effects of the treatment were evaluated by daily recording the tumor size by caliper measurement and parameters of the animal's overall health conditions. In the tissue sampling arm at the experiment, the mice were sacrificed by cervical dislocation 2 h after the last treatment. Tumors as well as organs were collected. Additionally, blood was drawn and incubated for 25 min to allow blood clotting. To isolate serum and blood pellets, the blood was centrifuged for 10 min at 17,900 g at room temperature. The supernatant characterized as serum was transferred to a new tube and centrifuged again to remove residual red blood cells. All collected samples were stored at −20°C and further processed for platinum measurements via ICP-MS."}},
  "data": [
    {"smiles": "CS(=O)(=O)c1ccc(-c2cscn2)[c]([Ru][Cl])c1.Cc1ccc(C(C)C)cc1", "note": "[Compound 1c]", "values": [
      {"measurement": "Kidney ruthenium levels, fold higher compared to 3c", "setting": "[1]", "value": 10, "unit": "fold"},
      {"measurement": "Ruthenium level in liver", "setting": "[1]", "value": "~20", "unit": "mg/kg"},
      {"measurement": "Ruthenium level in tumor", "setting": "[1]", "value": "~1", "unit": "mg/kg"},
      {"measurement": "Stabilization of DNA G-quadruplex structures", "setting": "[2]", "value": "stabilize DNA G-quadruplex (G4) structures"},
      {"measurement": "IC50", "setting": "[3]", "value": 1.6, "unit": "µM"},
      {"measurement": "Tolerated dose", "setting": "Balb/c mice", "value": "at least 50 mg/kg"},
      {"measurement": "Enhancement of cytotoxic activity by mesylation (1c vs 1a), 3D", "setting": "[4]; HCT116 3D", "value": 3.5, "unit": "fold"},
      {"measurement": "IC50", "setting": "[4]; read-out: IC50 3D, HCT116 3D spheroids, resazurin assay, 96 h exposure", "value": "8.9 ± 2.1", "unit": "µM"},
      {"measurement": "IC50", "setting": "[5]", "value": 5.1, "unit": "µM"},
      {"measurement": "Effect on intracellular ROS levels", "setting": "SW480 cells", "value": "constantly decrease ROS levels with increasing concentrations"},
      {"measurement": "IC50", "setting": "[6]", "value": 12, "unit": "µM"},
      {"measurement": "Increase of cytotoxic activity by mesylation (1c vs 1a), 2D", "setting": "[7]", "value": 2.8, "unit": "times"},
      {"measurement": "IC50", "setting": "[7]; read-out: IC50 2D, resazurin assay, 96 h exposure", "value": "6.5 ± 1.3", "unit": "µM"},
      {"measurement": "Impact on tumor volume (anticancer activity)", "setting": "CT26 tumor", "value": "slight anticancer activity"}
    ]}
  ]
}
